Measurements: patent US20240025918A1, “KRAS G12D Inhibitors” (Jacobio Pharmaceuticals Co., Ltd, priority 2020, published 2024)

Tests used:
[1] = molecular target: T1, GDP-loaded HIS-KRAS(G12D, aa 1-169) (Homo sapiens, UniProt P01116, G12D); assay: SOS1 catalyzed nucleotide exchange assay (TR-FRET); assay type: biochemical; conditions: 4 hours at 25° C.
T1 construct: GDP-loaded HIS-KRAS(G12D, aa 1-169)
Method: GDP-loaded HIS-KRAS(G12D, aa 1-169) was pre-incubated with a compound in the presence of 10 nM GDPin a 384-well plate (Greiner) for 15 min, then purified SOS1 ExD(Flag tag, aa 564-1049), BODIPY™ FL GTP (Invitrogen) and MAb (monoclonal antibody) Anti 6HIS-Tb cryptate Gold (Cisbio) were added to the assay wells (Final concentration: 1.5 nM GDP-loaded HIS-KRAS(G12D), 5 nM GDP, 0.5 μM SOS1 ExD, 80 nM BODIPY™ FL GTP, 52.5 ng/mL MAb Anti 6HIS-Tb cryptate Gold) and incubated for 4 hours at 25° C. Wells containing same percent of DMSO served as vehicle control, and wells without KRAS served as low control. TR-FRET signals were read on Tecan Spark multimode microplate reader. The parameters were F486: Excitation 340 nm, Emission 486 nm, Lag time 100 μs, Integration time 200 μs; F515: Excitation 340 nm, Emission 515 nm, Lag time 100 μs, Integration time 200 μs. TR-FRET ratios for each individual wells were calculated by equation: TR-FRET ratio=(Signal F515/Signal F486)*10000. The percent of activation of compounds treated wells were normalized between vehicle control and low control (% Activation=(TR-FRET ratioCompound treated−TR-FRET ratioLow control)/(TR-FRET ratioVehicle control−TR-FRET ratioLow control)*100%). Then the data were analyzed by fitting a 4-parameter logistic model or calculating in Excel to calculate IC50 values.

[2] = molecular target: T2, GppNp-loaded HIS-KRAS(G12D, aa 1-169) and cRAF RBD (Homo sapiens, UniProt P01116, G12D); assay: GTP-KRAS and cRAF interaction assay (HTRF); assay type: biochemical; conditions: 2 hours at 25° C.
T2 construct: GppNp-loaded HIS-KRAS(G12D, aa 1-169)
Method: GppNp-loaded HIS-KRAS(G12D, aa 1-169) was pre-incubated with a compound in the presence of 200 μM GTP in a 384-well plate (Greiner) for 15 min, then cRAF RBD(GST tag, aa 50-132, CreativeBioMart), MAb Anti GST-d2 (Cisbio) and MAb Anti 6HIS-Tb cryptate Gold (Cisbio) were added to the assay wells (Final concentration: 2.0 nM GppNp-loaded HIS-KRAS(G12D), 100 μM GTP, 35 nM cRAF RBD, 1 μg/mL MAb Anti GST-d2, 52.5 ng/mL MAb Anti 6HIS-Tb cryptate Gold) and incubated for 2 hours at 25° C. Wells containing same percent of DMSO served as vehicle control, and wells without KRAS served as low control. HTRF signals were read on Tecan Spark multimode microplate reader and HTRF ratios were calculated under manufacturer's instructions. The percent of activation of compounds treated wells were normalized between vehicle control and low control (% Activation=(HTRF ratioCompound treated−HTRF ratioLow control)/(HTRF ratioVehicle control−HTRF ratioLow control)*100%). Then the data were analyzed by fitting a 4-parameter logistic model or calculating in Excel to calculate IC50 values.

[3] = test system: AGS cells expressing KRAS G12D; assay: Phospho-ERK1/2(THR202/TYR204) HTRF assay; assay type: cell-based; conditions: Homo sapiens; Phospho-ERK1/2 in AGS cells, 2 hours incubation
Method: AGS cells expressing KRAS G12D were cultured in F12K medium (Gibco) containing 10% fetal bovine serum (Gibco). The AGS cells in culture medium were seeded in 96-well plates at a concentration of 40,000 cells/well and then put in a 37° C./5% CO2 cell incubator to incubate overnight. The next day, culture medium was removed and the compound diluted in assay medium (F12K, 0.1% FBS) was added in each well. After 2 hours incubation in a 37° C./5% CO2 cell incubator, the assay medium in 96-well plates was removed, then 50 μL of 1× blocking reagent-supplemented lysis buffer (Cisbio) was added and the plates were incubated at 25° C. for 45 min with shaking. 10 μL of cell lysates from the 96-well plates were transferred to a 384-well plate (Greiner) containing 2.5 μL/well HTRF® pre-mixed antibodies (Cisbio 64AERPEH). Incubate 4 hours at 25° C. and then read HTRF signals on Tecan Spark multimode microplate reader. The data were analyzed using a 4-parameter logistic model to calculate IC50 values.

AsPC-1 = assay: Cell growth inhibition assay, AsPC-1 (CellTiter-Glo); assay type: cell-based; conditions: Homo sapiens, ASPC1, 144 h; AsPC-1 cell viability, 6 days incubation
Method: AsPC-1 cultured in RPMI-1640 medium (Gibco) containing 10% fetal bovine serum (Gibco). Cells in culture medium were plated in 96-well plates at a concentration of 1000 cells/well (100 μL/well) and allowed to attach overnight.
(§1) The next day, compounds were diluted in culture medium and added to the plates. After 6 days incubation in a 37° C./5% CO2 cell incubator, the cell viability was detected by CellTiter-Glo® Luminescent Cell Viability Assay kit (Promega). Luminescent signals were read on Tecan Spark multimode microplate reader and analyzed using a 4-parameter logistic model to calculate IC50 values.

AGS = assay: Cell growth inhibition assay, AGS (CellTiter-Glo); assay type: cell-based; conditions: Homo sapiens, 144 h; AGS cell viability, 6 days incubation
Method: AGS cultured in F12K medium (Gibco) containing 10% fetal bovine serum (Gibco). Cells in culture medium were plated in 96-well plates at a concentration of 500 cells/well (100 μL/well) and allowed to attach overnight.
as §1

T2 sequence (P01116 1-169 isoform P01116-2 G12D): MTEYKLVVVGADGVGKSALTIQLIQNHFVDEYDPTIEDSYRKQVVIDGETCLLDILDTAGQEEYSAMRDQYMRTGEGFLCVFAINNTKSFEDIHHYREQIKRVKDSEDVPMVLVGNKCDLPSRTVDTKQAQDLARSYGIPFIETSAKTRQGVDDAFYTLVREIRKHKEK
T1 sequence (P01116 1-169 isoform P01116-2 G12D): as above

Row | Structure (SMILES) | IC50 [1] [nM] | IC50 [2] [nM] | IC50 [3] [nM] | IC50 (AsPC-1) [nM] | IC50 (AGS) [nM]
1 | C#Cc1cccc2cc(O)cc(-c3c(F)cc4c(N5CC6CCC(C5)N6)nc(OCC5(CN6CCOC7(CC7)C6)CC5)nc4c3F)c12 (single isomer, unassigned) [Compound 2A] | > 100 | > 10000 |  |  | 
2 | C#Cc1cccc2cc(O)cc(-c3c(F)cc4c(N5CC6CCC(C5)N6)nc(OCC5(CN6CCOC7(CC7)C6)CC5)nc4c3F)c12 (single isomer, unassigned) [Compound 2B] | 1.24 | 41.3 | 30.3 | 13.5 | 0.892
3 | C#Cc1cccc2cc(O)cc(-c3c(F)cc4c(N5CC6CCC(C5)N6)nc(OCC5(CN6CCC7(CC6)CC7(F)F)CC5)nc4c3F)c12 (single isomer, unassigned) [Compound 3A] | > 100 | 9080 |  |  | 
4 | C#Cc1c(F)ccc2cc(O)cc(-c3c(Cl)cc4c(N5CC6CCC(C5)N6)nc(OCC5(CN6CC7CC6CO7)CC5)nc4c3F)c12 (single isomer, unassigned) [Compound 4A] | 244 | 1570 |  |  | 
5 | C#Cc1c(F)ccc2cc(O)cc(-c3c(Cl)cc4c(N5CC6CCC(C5)N6)nc(OCC5(CN6CC7CC6CO7)CC5)nc4c3F)c12 (single isomer, unassigned) [Compound 4B] | 0.31 | 9.19 |  |  | 
6 | C#Cc1cccc2cc(O)cc(-c3c(F)cc4c(N5CC6CCC(C5)N6)nc(OCC5(CN6CC7CC6CO7)CC5)nc4c3F)c12 (single isomer, unassigned) [Compound 13A] | > 100 | > 10000 | 271 |  | 
7 | C#Cc1cccc2cc(O)cc(-c3c(F)cc4c(N5CC6CCC(C5)N6)nc(OCC5(CN6CC7CC6CO7)CC5)nc4c3F)c12 (single isomer, unassigned) [Compound 36A] | > 100 | 20.2 |  |  | 
8 | C#Cc1cccc2cc(O)cc(-c3c(F)cc4c(N5CC6CCC(C5)N6)nc(OCC5(CN6CCC6)CC5)nc4c3F)c12 [Compound 1] | 5.41 | 247 | 58.3 |  | 
9 | C#Cc1cccc2cc(O)cc(-c3c(F)cc4c(N5CC6CCC(C5)N6)nc(OCC5(CN6CCOC7(CC7)C6)CC5)nc4c3F)c12 [Compound 2] | 26 | 228 |  |  | 
10 | C#Cc1cccc2cc(O)cc(-c3c(F)cc4c(N5CC6CCC(C5)N6)nc(OCC5(CN6CCC7(CC6)CC7(F)F)CC5)nc4c3F)c12 [Compound 3] | 37.1 | 115 | 95.5 | 22.8 | 6.76
11 | C#Cc1c(F)ccc2cc(O)cc(-c3c(Cl)cc4c(N5CC6CCC(C5)N6)nc(OCC5(CN6C[C@@H]7C[C@H]6CO7)CC5)nc4c3F)c12 [Compound 4] |  |  | 38.8 |  | 
12 | C#Cc1cccc2cc(O)cc(-c3c(F)cc4c(N5CC6CCC(C5)N6)nc(OCC5(CN6CCCC7(C6)CC7(F)F)CC5)nc4c3F)c12 (centres unmarked) [Compound 5] | 55.5 | 310 |  | 62.1 | 21
13 | C#Cc1cccc2cc(O)cc(-c3c(F)cc4c(N5CC6CCC(C5)N6)nc(OCC5(CN6CCOC7(CCC7)C6)CC5)nc4c3F)c12 [Compound 6] | 66.2 | 437 |  |  | 
14 | C#Cc1cccc2cc(O)cc(-c3c(F)cc4c(N5CC6CCC(C5)N6)nc(OCC5(CN6CC7CC6CO7)CC5)nc4c3F)c12 (centres unmarked) [Compound 13] | 12 |  |  |  | 
15 | C#Cc1cccc2cc(O)cc(-c3c(F)cc4c(N5CC6CCC(C5)N6)nc(OCC5(CN6CCc7ccccc7C6)CC5)nc4c3F)c12 [Compound 16] | 27.3 |  |  |  | 
16 | C#Cc1cccc2cc(O)cc(-c3c(F)cc4c(N5CC6CCC(C5)N6)nc(OCC5(CN6CC7(CC(O)C7)C6)CC5)nc4c3F)c12 [Compound 18] | 0.975 | 77.8 |  |  | 
17 | C#Cc1cccc2cc(O)cc(-c3ccc4c(N5CC6CCC(C5)N6)nc(OCC5(Cc6ccccn6)CC5)nc4c3F)c12 [Compound 23] | > 100 | > 10000 |  |  | 
18 | C#Cc1cccc2cc(O)cc(-c3c(F)cc4c(N5CC6CCC(C5)N6)nc(OCC5(CN6CC(O)C6)CC5)nc4c3F)c12 [Compound 26] | 2.58 | 113 | 56.3 |  | 
19 | C#Cc1cccc2cc(O)cc(-c3c(F)cc4c(N5CC6CCC(C5)N6)nc(OCC5(CN6CC(C)(O)C6)CC5)nc4c3F)c12 [Compound 29] | 3.5 | 71.6 | 25 |  | 
20 | C#Cc1c(F)ccc2cc(O)cc(-c3c(C(C)C)cc4c(N5CC6CCC(C5)N6)nc(OCC5(CN6C[C@@H]7C[C@H]6CO7)CC5)nc4c3F)c12 [Compound 38] | 1.15 | 5.82 |  |  | 
21 | C#Cc1c(F)ccc2cc(O)cc(-c3c(C(F)(F)F)cc4c(N5CC6CCC(C5)N6)nc(OCC5(CN6C[C@@H]7C[C@H]6CO7)CC5)nc4c3F)c12 [Compound 40] | 1.29 | 8.09 |  |  | 
22 | C#Cc1c(F)ccc2cc(O)cc(-c3c(C#N)cc4c(N5CC6CCC(C5)N6)nc(OCC5(CN6C[C@@H]7C[C@H]6CO7)CC5)nc4c3F)c12 [Compound 41] | 1.04 | 7.18 |  |  | 
23 | C#Cc1c(F)ccc2cc(O)cc(-c3c(SC(F)(F)F)cc4c(N5CC6CCC(C5)N6)nc(OCC5(CN6C[C@@H]7C[C@H]6CO7)CC5)nc4c3F)c12 [Compound 42] | 0.97 | 4.04 |  |  | 
24 | CCc1c(F)ccc2cc(O)cc(-c3c(C(F)(F)F)cc4c(N5CC6CCC(C5)N6)nc(OCC5(CN6C[C@@H]7C[C@H]6CO7)CC5)nc4c3F)c12 [Compound 43] | 4.64 | 436 |  |  | 
25 | C#Cc1cccc2cc(O)cc(-c3c(F)cc4c(N5CC6CCC(C5)N6)nc(OCC5(CN6CC7(CCCO7)C6)CC5)nc4c3F)c12 [Compound 44] | 35.7 |  |  |  | 
26 | C#Cc1cccc2cc(O)cc(-c3c(F)cc4c(N5CC6CCC(C5)N6)nc(OCC5(CN6CC7(CC(OC)C7)C6)CC5)nc4c3F)c12 [Compound 49] | 3.95 | 73.2 | 46.4 |  | 
27 | C#Cc1cccc2cc(O)cc(-c3c(F)cc4c(N5CC6CCC(C5)N6)nc(OCC5(CN6CCn7cncc7C6)CC5)nc4c3F)c12 [Compound 53] | 2.59 | 818 | 80.3 |  | 
28 | C#Cc1cccc2cc(O)cc(-c3c(F)cc4c(N5CC6CCC(C5)N6)nc(OCC5(CN6C7COCC6C7)CC5)nc4c3F)c12 [Compound 57] | 6.81 | 439 | 46.3 |  | 
29 | C#Cc1cccc2cc(O)cc(-c3c(F)cc4c(N5CC6CCC(C5)N6)nc(OCC5(CN6Cc7ccccc7C6)CC5)nc4c3F)c12 [Compound 58] | 2.04 | 188 |  | 91 | 34
